One assay addresses Dipeptidyl peptidase 4 (Homo sapiens, UniProt P27487).
Another assay relates to Mus musculus. The assay is described as follows: Antidiabetic activity in ICR mouse assessed as deduction of glucose excursion at 0.3 to 10 mg/kg, po administered 30 mins before oral glucose challenge measured up to 120 mins by oral glucose tolerance test. It is filed as functional, organism-based.

The structures appear in SMILES notation. Calls of active or inactive are those of the source. The rule behind the calls is not given here.

Chain of Dipeptidyl peptidase 4 (P27487 whole entry): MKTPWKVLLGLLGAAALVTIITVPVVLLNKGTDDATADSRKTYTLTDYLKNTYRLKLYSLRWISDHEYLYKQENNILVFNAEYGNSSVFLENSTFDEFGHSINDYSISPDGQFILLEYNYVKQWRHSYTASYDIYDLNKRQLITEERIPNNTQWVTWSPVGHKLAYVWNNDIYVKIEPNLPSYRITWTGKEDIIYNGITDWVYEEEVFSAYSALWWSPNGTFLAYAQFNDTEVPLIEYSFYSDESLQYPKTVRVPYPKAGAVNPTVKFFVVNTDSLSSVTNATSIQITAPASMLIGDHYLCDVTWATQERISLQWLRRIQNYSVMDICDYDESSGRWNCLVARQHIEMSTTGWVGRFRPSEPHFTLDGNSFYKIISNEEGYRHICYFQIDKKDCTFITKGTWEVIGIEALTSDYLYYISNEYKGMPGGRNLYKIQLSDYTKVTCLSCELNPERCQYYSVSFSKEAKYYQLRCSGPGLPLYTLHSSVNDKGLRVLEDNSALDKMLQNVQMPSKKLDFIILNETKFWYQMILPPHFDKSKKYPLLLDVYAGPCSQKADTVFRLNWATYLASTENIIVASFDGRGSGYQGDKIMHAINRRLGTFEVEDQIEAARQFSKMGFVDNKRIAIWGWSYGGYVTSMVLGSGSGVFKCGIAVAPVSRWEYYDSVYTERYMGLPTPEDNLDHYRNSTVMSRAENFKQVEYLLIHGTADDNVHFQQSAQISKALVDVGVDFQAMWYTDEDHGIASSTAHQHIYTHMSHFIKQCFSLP
Description for Dipeptidyl peptidase 4: Inhibition of DPP4 by chemical luminescent assay

At Dipeptidyl peptidase 4, `N#C[C@@H]1CCCN1C(=O)CN[C@@H]1C[C@@H]2C[C@H](OC(=O)Nc3ccccc3)C[C@@H]2C1` showed an IC50 of 121 nM. `CC(C)NC(=O)O[C@H]1C[C@H]2C[C@@H](NCC(=O)N3CCC[C@H]3C#N)C[C@H]2C1` displayed a concentration for half-maximal inhibition (IC50) at Dipeptidyl peptidase 4 of 204 nM. For `N#C[C@@H]1CCCN1C(=O)CN[C@H]1C[C@H]2C[C@@H](O)C[C@H]2C1`, the outcome in the assay on Mus musculus was Active.

The compound `CC(C)(C)NC(=O)O[C@H]1C[C@H]2C[C@@H](NCC(=O)N3CCC[C@H]3C#N)C[C@H]2C1` showed a half-maximal inhibitory concentration (IC50) against Dipeptidyl peptidase 4 of 326 nM.

Consider `CO[C@H]1C[C@H]2C[C@@H](NCC(=O)N3CCC[C@H]3C#N)C[C@H]2C1`, for which the outcome in the assay on Mus musculus was Active.

Source of the values: ChEMBL document CHEMBL1158615, “Synthesis and biological evaluation of bicyclo[3.3.0] octane derivatives as dipeptidyl peptidase 4 inhibitors for the treatment of type 2 diabetes” (Bioorg Med Chem Lett, 2010).
